In article PMC8869358, “High-Throughput Chemical Screening and Structure-Based Models to Predict hERG Inhibition” (Biology, 2022):
Structures can show the parent of a compound that is named as a salt.

These molecules were tested against hERG (Homo sapiens, UniProt Q12809) (assay: cell-based). Conditions: (-LOG10(IC50), µM).
Chain of hERG (Q12809 whole entry): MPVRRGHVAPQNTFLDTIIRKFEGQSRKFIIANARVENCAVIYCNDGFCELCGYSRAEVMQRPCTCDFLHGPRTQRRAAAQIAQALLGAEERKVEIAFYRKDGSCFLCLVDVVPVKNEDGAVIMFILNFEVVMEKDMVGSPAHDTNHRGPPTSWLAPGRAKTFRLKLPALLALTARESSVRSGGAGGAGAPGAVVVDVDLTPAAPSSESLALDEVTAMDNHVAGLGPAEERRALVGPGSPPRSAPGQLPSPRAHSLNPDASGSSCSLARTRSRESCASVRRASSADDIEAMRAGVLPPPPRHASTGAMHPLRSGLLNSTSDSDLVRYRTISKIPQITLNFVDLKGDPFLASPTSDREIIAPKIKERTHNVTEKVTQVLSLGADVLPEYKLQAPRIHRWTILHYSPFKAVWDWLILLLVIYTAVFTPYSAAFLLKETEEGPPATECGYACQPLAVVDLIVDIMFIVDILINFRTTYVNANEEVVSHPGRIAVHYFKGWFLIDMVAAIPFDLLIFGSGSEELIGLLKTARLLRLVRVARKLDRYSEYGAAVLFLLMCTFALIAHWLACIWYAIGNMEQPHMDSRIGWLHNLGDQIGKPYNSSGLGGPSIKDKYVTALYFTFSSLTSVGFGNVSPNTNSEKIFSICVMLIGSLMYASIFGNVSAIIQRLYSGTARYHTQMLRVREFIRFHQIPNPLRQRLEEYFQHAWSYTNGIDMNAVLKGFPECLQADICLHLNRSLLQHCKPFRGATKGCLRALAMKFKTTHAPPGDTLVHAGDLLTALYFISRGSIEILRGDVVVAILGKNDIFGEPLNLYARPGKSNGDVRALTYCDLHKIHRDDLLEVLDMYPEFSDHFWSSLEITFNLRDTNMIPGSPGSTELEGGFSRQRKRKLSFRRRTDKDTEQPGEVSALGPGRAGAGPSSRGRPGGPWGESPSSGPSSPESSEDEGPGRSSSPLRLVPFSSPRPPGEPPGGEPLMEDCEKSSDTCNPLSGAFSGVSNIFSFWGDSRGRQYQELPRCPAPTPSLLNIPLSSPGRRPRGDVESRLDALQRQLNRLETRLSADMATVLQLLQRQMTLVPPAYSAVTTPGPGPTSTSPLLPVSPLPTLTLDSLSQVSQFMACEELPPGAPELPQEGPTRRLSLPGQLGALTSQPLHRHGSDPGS

SMILES	IC50 [µM]
COc1cc(C(C)(C)C)c(O)c(C(C)(C)C)c1 [2,6-Di-tert-butyl-4-methoxyphenol]	38.9
O=S(=O)(c1ccc(Cl)cc1)c1ccc(Cl)cc1 [4,4'-Dichlorodiphenyl sulfone]	49.7
CCCCCC(=O)O[C@]1(C(C)=O)CC[C@H]2[C@@H]3CCC4=CC(=O)CC[C@]4(C)[C@H]3CC[C@@]21C [17-((1-Oxohexyl)oxy)pregn-4-ene-3,20-dione]	22.6
CN1CCN(C2=Nc3ccccc3Oc3ccc(Cl)cc32)CC1 [Loxapine succinate]	12
O=C1CN=C(c2ccccc2)c2cc(Cl)ccc2N1CC1CC1 [Prazepam]	23
O=[N+]([O-])c1cccc(S(=O)(=O)NCCNS(=O)(=O)c2cccc([N+](=O)[O-])c2)c1 [Dinsed]	14.5
CCN(CC)CCNC(=O)COc1ccc(Cl)cc1 [Clofexamide]	16.3
CCCCCCCCn1sc(Cl)c(Cl)c1=O [4,5-Dichloro-2-octyl-3(2H)-isothiazolone]	16.1
CCCC(C(=O)OCCN(CC)CC)(c1ccccc1)c1ccccc1 [Proadifen hydrochloride]	7.28
CNCCCC1c2ccccc2C=Cc2ccccc21 [Protriptyline hydrochloride]	23.9
Cc1c(C)n(Cc2ccccc2)c2ccc(C(=O)OCCN(C)C)cc12 [Indocate]	14.2
O=C(OC1CCCCC1)c1ccccc1C(=O)OC1CCCCC1 [Dicyclohexyl phthalate]	23.1
CCOP(=S)(OCC)OC(Cl)C(Cl)(Cl)Cl (stereo not drawn) [Chlorethoxyfos]	25.5
CCCCCCCCCCCCCCNCCO [Myralact]	12.5
C=CCOC(Cn1ccnc1)c1ccc(Cl)cc1Cl (stereo not drawn) [Imazalil sulfate]	21.3
CCCCCCCC[n+]1ccn(C)c1 [1-Methyl-3-octylimidazolium trifluoromethanesulfonate]	21.2
CCOP(=S)(Oc1cnc(C(C)(C)C)nc1)OC(C)C (stereo not drawn) [Tebupirimfos]	43.6
CCC(=O)O[C@H]1CC[C@H]2[C@@H]3CCC4=CC(=O)CC[C@]4(C)[C@H]3CC[C@]12C [Testosterone propionate]	25.8
C[C@@H]1CC[C@@]2(OC1)O[C@H]1[C@@H](O)[C@H]3[C@@H]4CC[C@H]5C[C@@H](O[C@@H]6O[C@H](CO)[C@H](O[C@@H]7O[C@H](CO)[C@@H](O)[C@H](O[C@@H]8OC[C@@H](O)[C@H](O)[C@H]8O)[C@H]7O[C@@H]7O[C@H](CO)[C@@H](O)[C@H](O[C@@H]8O[C@H](CO)[C@@H](O)[C@H](O)[C@H]8O)[C@H]7O)[C@H](O)[C@H]6O)[C@H](O)C[C@]5(C)[C@H]4CC[C@]3(C)[C@H]1[C@@H]2C [Digitonin]	8.9

SMILES	IC50 [µM]
CC(=O)c1ccc2c(c1)N(CCCN(C)C)c1ccccc1S2 [Acetopromazine maleate]	15.1
CCCCCCCCCCCCCCCC[N+](C)(C)C [Hexadecyltrimethylammonium bromide]	20.1
CCCCCC[n+]1ccn(C)c1.O=S(=O)([N-]S(=O)(=O)C(F)(F)F)C(F)(F)F [1-Hexyl-3-methylimidazolium bis(trifluoromethylsulfonyl)imide]	45.4
CN1CCC(=C2c3ccccc3CCc3sccc32)CC1 [Pizotyline]	10.3
CC(C)CC(C)Nc1ccc(Nc2ccccc2)cc1 (stereo not drawn) [6PPD]	29
CN1CCc2cc(Cl)c(O)cc2[C@H]2c3ccccc3CC[C@@H]21 [Ecopipam]	10.3
O=C(Nc1ccccc1)N(Cc1ccc(Cl)cc1)C1CCCC1 [Pencycuron]	33.4
CCOc1ccccc1OCCN[C@H](C)Cc1ccc(OC)c(S(N)(=O)=O)c1 [Tamsulosin hydrochloride]	19.7
O=C(Oc1ccccc1)c1cccc(C(=O)Oc2ccccc2)c1 [Diphenyl isophthalate]	25
CCCC[P+](CCCC)(CCCC)CCCC [Tetrabutylphosphonium bromide]	16
CCN(CC)c1ccc(N)cc1 [N,N-Diethyl-p-phenylenediamine]	35.6
CCC(C)c1cc([N+](=O)[O-])cc([N+](=O)[O-])c1OC(=O)C=C(C)C (stereo not drawn) [Binapacryl]	30.9
Cc1ccccc1OP(=O)(Oc1ccccc1C)Oc1ccccc1C [Tri-o-cresyl phosphate]	21.1
c1ccc2c(c1)Oc1ccccc1S2 [Phenoxathiin]	24.5
Cc1[nH]cnc1C[C@H]1CCc2c(C)c3ccccc3n2C1=O [Fabesetron hydrochloride]	7.01
N=C(N)NN=C(/C=C/c1ccc([N+](=O)[O-])o1)/C=C/c1ccc([N+](=O)[O-])o1 [Nitrovin]	2.3
CCN1CCCC(OC(=O)C(c2ccccc2)c2ccccc2)C1 (stereo not drawn) [Crapinon]	5.35
CCOc1cc(Oc2ccc(C(F)(F)F)cc2Cl)ccc1[N+](=O)[O-] [Oxyfluorfen]	21.9
COC(=O)[C@H]1[C@H]2C[C@@H]3c4[nH]c5cc(OC)ccc5c4CCN3C[C@H]2C[C@@H](OC(=O)c2cc(OC)c(OC)c(OC)c2)[C@@H]1OC [Reserpine]	9.16

SMILES	IC50 [µM]
CC(C)COC(=O)COc1cc(Cl)c(Cl)cc1Cl [Isobutyl (2,4,5-trichlorophenoxy)acetate]	41.1
CCCCCCCCCCn1cc[n+](C)c1 [1-Decyl-3-methylimidazolium chloride]	16.7
CC(CCc1ccc(O)cc1)NCCc1ccc(O)c(O)c1 (racemic) [DL-Dobutamine]	16.9
Nc1ccc(Cl)cc1C(=O)c1ccccc1 [2-Amino-5-chlorobenzophenone]	50.9
CCCCC(CC)COCCCN (stereo not drawn) [3-((2-Ethylhexyl)oxy)propylamine]	35.6
CC(C)Nc1ccc(Nc2ccccc2)cc1 [N-Isopropyl-N'-phenyl-p-phenylenediamine]	28.5
CC(COc1ccc(Oc2ccccc2)cc1)Oc1ccccn1 (stereo not drawn) [Pyriproxyfen]	21
CCCCCCCCCCCCN [Dodecylamine hydrochloride]	13.3
CCOC(=O)C1=C[C@]2(CC)CCCN3CCc4c(n1c1ccccc41)[C@@H]32 [Vinpocetine]	0.169
CCCOC/C(=N\c1ccc(Cl)cc1C(F)(F)F)n1ccnc1 [Triflumizole]	36
COc1cc2c(cc1OC)C(C(C(=O)N(CCc1ccc(OC)c(OC)c1OC)CCc1ccc(OC)c(OC)c1OC)c1ccccc1)=NCC2 (stereo not drawn) [Pinokalant hydrochloride]	20.1
CCCCCCCCCCCCCCn1cc[n+](C)c1 [1-Methyl-3-tetradecylimidazolium chloride]	8.62
CCCSSC(CCO)=C(C)N(C=O)Cc1cnc(C)nc1N [Prosultiamine]	10.7
CC(=O)NC1(c2cccc(F)c2)CCN(CC[C@@]2(c3ccc(Cl)c(Cl)c3)CN(c3ccccc3)C(=O)CO2)CC1 [SAR102779]	9.08
CCCOc1sc(C(=O)N2CCC(c3cc(CN)ccc3F)CC2)c(C)c1Br [AVE8923]	4.49
C[C@@H]1CC(=O)NN=C1c1ccc(NN=C(C#N)C#N)cc1 [Levosimendan]	5.67
CC(Cc1cccc(C(F)(F)F)c1)NCCOC(=O)c1ccccc1 (stereo not drawn) [Benfluorex hydrochloride]	9.52
CN1CCN(CCCN2c3ccccc3Sc3ccc(S(=O)(=O)N(C)C)cc32)CC1 [Thioproperazine dimethanesulfonate]	4.96
CCCCCCCCCCCC(=O)NCCCN(C)C [N-[3-(Dimethylamino)propyl]dodecanamide]	14.3
